Source: PubChem BioAssay (NCI)
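Five compound concentrations were applied to cells in 96-well plates for 48 hours; endpoints were derived by simple linear interpolation of the resulting dose-response curve. At the GI50, growth is halved. TGI is the concentration that stops growth completely.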

Experiments:
Experiment in all cases: NCI anticancer screen, dose series, 48 h
COLO 205 colon = test system: COLO 205 colon
SK-MEL-28 melanoma = test system: SK-MEL-28 melanoma
K-562 leukemia = test system: K-562 leukemia
SK-MEL-5 melanoma = test system: SK-MEL-5 melanoma
OVCAR-4 ovarian = test system: OVCAR-4 ovarian
HCC-2998 colon = test system: HCC-2998 colon
HL-60(TB) leukemia = test system: HL-60(TB) leukemia
MOLT-4 leukemia = test system: MOLT-4 leukemia
SK-OV-3 ovarian = test system: SK-OV-3 ovarian
HT29 colon = test system: HT29 colon

SMILES	GI50 (COLO 205 colon)	TGI (COLO 205 colon)	GI50 (SK-MEL-28 melanoma)	TGI (SK-MEL-28 melanoma)	GI50 (K-562 leukemia)	TGI (K-562 leukemia)	GI50 (SK-MEL-5 melanoma)	TGI (SK-MEL-5 melanoma)	GI50 (OVCAR-4 ovarian)	TGI (OVCAR-4 ovarian)	GI50 (HCC-2998 colon)	TGI (HCC-2998 colon)	GI50 (HL-60(TB) leukemia)	TGI (HL-60(TB) leukemia)	GI50 (MOLT-4 leukemia)	TGI (MOLT-4 leukemia)	GI50 (SK-OV-3 ovarian)	TGI (SK-OV-3 ovarian)	GI50 (HT29 colon)	TGI (HT29 colon)
C#C[C@]1(O)CC[C@H]2[C@@H]3CC=C4c5nc(Nc6ccccn6)sc5CC[C@]4(C)[C@H]3CC[C@@]21C	1.81 µM	4.05 µM	0.279 µM	1.01 µM	0.348 µM	2.13 µM	1.6 µM	2.98 µM	2.94 µM	9.42 µM	1.95 µM	5.13 µM	0.398 µM	1.96 µM	0.344 µM	1.7 µM	1.32 µM	5.29 µM	1.6 µM	3.94 µM
CC1(C)CCC(C)(C)c2cc(C(=O)Nc3ccc(C(=O)O)cc3)ccc21		36 µM		> 90.8 µM		> 100 µM		> 56 µM		67.1 µM		37.2 µM		> 53.1 µM		> 76.8 µM		> 61.1 µM		> 68.2 µM
N#Cc1ccc(-c2nc(C#N)c(N)o2)cc1		> 10 µM		> 10 µM		> 10 µM		> 10 µM		> 10 µM		> 10 µM		> 10 µM		> 10 µM		> 10 µM		> 10 µM
CC(C)c1ccc2nc3ccc(C(=O)NCCN(C)C)cn3c(=O)c2c1		33.8 µM		32.4 µM		9.46 µM		24.8 µM		56.5 µM		31.7 µM		42.1 µM		49.8 µM		33.5 µM		24.5 µM
CC1(C)N=C(N)N=C(N)N1c1ccc(CCc2ccccc2)c(Cl)c1	0.0694 µM	6.83 µM	0.391 µM	15.9 µM	0.0323 µM	14.6 µM	0.124 µM	1.33 µM	0.52 µM	13.1 µM	0.361 µM	13.3 µM	0.0473 µM	2.72 µM	0.0648 µM	13.5 µM	1.04 µM	18.4 µM	0.0531 µM	12.7 µM
O=c1nc(-c2ccccc2)c2c3c(cccn13)CCC2				> 100 µM		> 100 µM		> 100 µM		> 100 µM		> 100 µM		> 100 µM		> 100 µM		> 100 µM		> 100 µM
CCc1ccccc1NC(=O)C(=O)C(C(=O)c1ccc(OC)cc1)c1ccc(OC)cc1 (configuration not stated)		> 100 µM				> 100 µM		> 100 µM		> 100 µM		> 100 µM		> 100 µM		> 100 µM		> 100 µM		> 100 µM
CC1=C(C(=O)NC2CCCCC2)CC(C(=O)NC2CCCCC2)=C(C)N1		> 100 µM		> 100 µM		> 100 µM		> 100 µM		> 100 µM		> 100 µM		> 100 µM		> 100 µM		> 100 µM		
O=c1oc2ccccc2c(O)c1C=NC(=S)c1ccncc1		> 100 µM		> 100 µM				> 100 µM		> 100 µM		> 100 µM		35.5 µM		> 100 µM		> 100 µM		> 100 µM
O=C1[C@@H](c2ccc(Cl)cc2)[C@H]2CC=C[C@H]2N1O		> 100 µM		> 100 µM		> 100 µM		> 100 µM				> 100 µM		> 100 µM		> 100 µM		> 100 µM		> 100 µM
COc1ccc(-n2nnc3c(sc4ccccc43)c2=O)cc1	> 100 µM	> 100 µM	> 100 µM	> 100 µM	> 100 µM	> 100 µM	> 100 µM	> 100 µM			> 100 µM	> 100 µM	> 100 µM	> 100 µM	> 100 µM	> 100 µM				
COC(=O)C1=CCON(c2ccccc2)C1c1ccccc1 (configuration not stated)		> 100 µM		> 100 µM		> 100 µM						> 100 µM		61.7 µM		> 100 µM		> 100 µM		> 100 µM
CON(C)C(=O)C(C)NC(=O)OCc1ccccc1 (configuration not stated)				> 100 µM		> 100 µM		> 100 µM				> 100 µM		> 100 µM		> 100 µM		> 100 µM		> 100 µM
C[C@]12CC[C@@H]3c4ccc(O)c([N+](=O)[O-])c4CC[C@H]3[C@@H]1CC[C@@H]2NS(=O)(=O)c1ccc(C(F)(F)F)cc1	3.05 µM	9.4 µM	1.99 µM	3.66 µM	2.02 µM	5.84 µM	1.72 µM	3.28 µM	2.44 µM	8.88 µM	2.05 µM	4.02 µM			2.08 µM	5.99 µM	2.65 µM	7.36 µM	2.03 µM	3.71 µM
C/C(=N\O)c1ccc(Nc2cc(-n3nnc4ccccc43)nc3ccccc23)cc1	9.47 µM	> 39.2 µM	16.9 µM	> 69 µM	5.32 µM	> 100 µM	5.57 µM	16.6 µM	13.9 µM	> 72.2 µM			10.6 µM	45.7 µM	2.85 µM	15.4 µM	24.1 µM	> 62.3 µM	5.89 µM	> 100 µM
C[n+]1cc2c3c(ccc2c2ccc4cc5c(cc4c21)OCO5)OCO3	0.255 µM	0.778 µM	1.22 µM	2.48 µM	0.47 µM	3.06 µM	1.16 µM	2.39 µM			1.47 µM	2.92 µM	0.445 µM	2.7 µM	0.3 µM	0.697 µM	1.21 µM	2.45 µM	0.507 µM	1.87 µM
CSc1nc2c(c(O)c(C)c(=O)n2C2OC(COC(C)=O)C(OC(C)=O)C(OC(C)=O)C2OC(C)=O)c(=O)n1C (configuration not stated)		> 100 µM		> 100 µM		> 100 µM		> 100 µM		> 100 µM		> 100 µM		> 100 µM				> 100 µM		> 100 µM
CC(C)N(C(=O)C12C3C4C1C1C2C3C41C(O)C(C)(C)C)C(C)C (configuration not stated)		> 50 µM		> 50 µM		> 50 µM		> 50 µM				> 50 µM		> 50 µM		> 50 µM		> 50 µM		> 50 µM
